Key:
[1] = Measurement of brain exposure; format: in vivo; settings: rat, brain homogenate, oral; 10 mg/kg p.o.; brains collected at 2 hours post-dosing; male obese Zucker fa/fa rats; read-out: brain homogenate exposure level
Description: Measurement of Brain Exposure
Male obese Zucker fa/fa rats were administered compounds, typically at 10 mg/kg p.o., and then brains were collected at 2 hours post-dosing for determination of brain concentration. Brains were weighed and homogenized with 4 mL 10 mM ammonium acetate buffer (pH 3), and the brain tissue homogenate samples were extracted via protein precipitation with acetonitrile. Samples were vortexed, centrifuged, and analyzed by liquid chromatography utilizing mass spectrometer selective detection (LC/MS/MS) using the heated nebulizer interface. Samples were quantitated using weighted (1/x^2) linear internal standard calibration curve. For example, when 1-(4-chlorophenyl)-2-(2-chlorophenyl)-N-(1-piperidinyl)-5-butyl-1H-imidazole-4-carboxamide was dosed at 10 mg/kg p.o., a brain homogenate exposure level of approximately 200 nM was determined; when 2-(2-chlorophenyl)-1-(4-chlorophenyl)-5-ethyl-N-[(1S,2S)-2-hydroxycyclohexyl]-1H-imidazole-4-carboxamide was dosed at 10 mg/kg p.o., a brain homogenate exposure level of approximately 200 nM was determined.

obese Zucker fa/fa rats = assay: Chronic feeding assay (body weight, food and water consumption); format: in vivo, rat; settings: 10 mg/kg p.o. once a day, day 6 of treatment
Source text: Evaluation of Compound's Efficacy on the Reduction of Body Weight and Food and Water Consumption in Obese Zucker fa/fa Rats
The purpose of this protocol is to determine the effect of chronic administration of an unknown compound on body weight and food and water consumption in obese Zucker fa/fa rats. Obese Zucker fa/fa rats are frequently used in the determination of compound efficacy in the reduction of body weight. This animal model has been successfully used in the identification and characterization of the efficacy profile of compounds that are or have been used in the management of body weight in obese humans (see, e.g., Al-Barazanji et al., Obes Res. 8:317-323, 2000; Assimacopoulos-Jeannet et al., Am. J. Physiol. 260(2 Pt 2):R278-283, 1991; Dryden et al., Horm. Metab. Res. 31:363-366, 1999; Edwards and Stevens, Pharmacol. Biochem. Behav. 47:865-872, 1994; Grinker et al., Pharmacol. Biochem. Behav. 12:265-275, 1980).
A typical study includes 60-80 male Zucker fa/fa (n=10/treatment group) with an average body weight of approximately 550 g. Rats are kept in standard animal rooms under controlled temperature and humidity and a 12/12 light dark cycle. Water and food are continuously available. Rats are single-housed in large rat shoeboxes containing grid floor. Animals are adapted to the grid floors and sham-dosed with study vehicle for at least four days before the recording of two-days baseline measurement of body weight and 24-hr food and water consumption. Rats are assigned to one of 6-8 treatment groups based upon their body weight on baseline. The groups are set up so that the mean and standard error of the mean of body weight were similar.
Animals are orally gavaged (2 mL/kg) daily before the dark phase of the LD/cycle for a pre-determined number of days (typically 6-14 days) with their assigned dose/compound. At this time, body weight, food and water consumption are measured. On the final day, animals are euthanized by CO2 inhalation, and the body weight is measured.

CCCCc1c(C(=O)NN2CCCCC2)nc(-c2ccccc2Cl)n1-c1ccc(Cl)cc1 [1-(4-chlorophenyl)-2-(2-chlorophenyl)-N-(1-piperidinyl)-5-butyl-1H-imidazole-4-carboxamide]
concentration at 2 h [1]: ~200 nM

O=C(N[C@H]1CCCC[C@@H]1O)c1cn(-c2ccc(Cl)cc2)c(-c2ccccc2Cl)n1 [2-(2-chlorophenyl)-1-(4-chlorophenyl)-N-[(1S,2S)-2-hydroxycyclohexyl]-1H-imidazole-4-carboxamide]
increase in body weight from baseline (obese Zucker fa/fa rats): approximately 2.4%
reduction in body weight gain as compared to the vehicle control group (obese Zucker fa/fa rats): approximately 50%

Cl.O=C(NNc1ccc(C(F)(F)F)cc1)c1cn(-c2ccc(Cl)cc2)c(-c2ccccc2Cl)n1 [2-(2-chlorophenyl)-1-(4-chlorophenyl)-N′-[4-(trifluoromethyl)phenyl]-1H-imidazole-4-carbohydrazide hydrochloride]
increase in body weight from baseline (obese Zucker fa/fa rats): approximately 1.8%
reduction in body weight gain as compared to the vehicle control group (obese Zucker fa/fa rats): approximately 60%

Cc1c(C(=O)NC2CCCCC2)nc(-c2ccccc2Cl)n1-c1ccc([N+](=O)[O-])cc1 [Example 23, N-cyclohexyl-2-(2-chlorophenyl)-5-methyl-1-(4-nitrophenyl)-1H-imidazole-4-carboxamide]
melting point: 217 to 220 °C

CCc1c(C(=O)N[C@H]2CCCC[C@@H]2O)nc(-c2ccccc2Cl)n1-c1ccc(Cl)cc1 [2-(2-chlorophenyl)-1-(4-chlorophenyl)-5-ethyl-N-[(1S,2S)-2-hydroxycyclohexyl]-1H-imidazole-4-carboxamide]
concentration at 2 h [1]: ~200 nM
